From ChEMBL document CHEMBL1201862, “PubChem BioAssay data set” (2004)
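Interpolation was linear, between the two tested concentrations surrounding the appropriate level; five concentrations were tested over 48 hours in 96-well plates. GI50 is the concentration that inhibits growth by half.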 Calls of active or inactive are those of the source. Rule as the data show it: active = GI50 up to about 1.1 µM and inactive = higher.

Key:
Assay in all cases: NCI-60 cell line screen, 48 h
HCT-116 = test system: HCT-116
TK-10 = test system: TK-10
HCC 2998 = test system: HCC 2998
SK-OV-3 = test system: SK-OV-3
NCI-H460 = test system: NCI-H460
SNB-75 = test system: SNB-75
KM12 = test system: KM12
A498 = test system: A498
RXF 393 = test system: RXF 393
EKVX = test system: EKVX
HCT-15 = test system: HCT-15
OVCAR-3 = test system: OVCAR-3
SK-MEL-28 = test system: SK-MEL-28
COLO 205 = test system: COLO 205
MDA-MB-435 = test system: MDA-MB-435
LOX IMVI = test system: LOX IMVI
A549 = test system: A549
CCRF-CEM = test system: CCRF-CEM
MOLT-4 = test system: MOLT-4

Compound	GI50 (HCT-116)	GI50 (TK-10)	GI50 (HCC 2998)	GI50 (SK-OV-3)	GI50 (NCI-H460)	GI50 (SNB-75)	GI50 (KM12)	GI50 (A498)	GI50 (RXF 393)	GI50 (EKVX)	GI50 (HCT-15)	GI50 (OVCAR-3)	GI50 (SK-MEL-28)	GI50 (COLO 205)	GI50 (MDA-MB-435)	GI50 (LOX IMVI)	GI50 (A549)	GI50 (CCRF-CEM)	GI50 (MOLT-4)
Cn1c(=O)c2ccccc2c2ccccc21	45 µM (inactive)	34.1 µM (inactive)	56.8 µM (inactive)	27.5 µM (inactive)	29.3 µM (inactive)	44.9 µM (inactive)	72.9 µM (inactive)	30.8 µM (inactive)	40.6 µM (inactive)	18.8 µM (inactive)	40 µM	52.7 µM (inactive)	85.5 µM (inactive)	34.3 µM (inactive)	56.8 µM (inactive)	64.4 µM (inactive)	53.8 µM (inactive)	66.5 µM (inactive)	
O=C(c1ccccc1)c1ccc2c(c1)nc1n2C(c2c(Cl)cccc2Cl)SC1 (centres undefined)	29 µM (inactive)	> 100 µM (inactive)	> 100 µM (inactive)	> 100 µM (inactive)	40.2 µM (inactive)	28.4 µM (inactive)	19.9 µM (inactive)	58.7 µM (inactive)	79.8 µM (inactive)	50.4 µM (inactive)	56 µM	38.8 µM (inactive)	> 100 µM (inactive)	45.6 µM (inactive)	59.2 µM (inactive)	44 µM (inactive)	32.7 µM (inactive)		31.4 µM (inactive)
C/C(=C\C(=O)O)C(=O)N(C)c1ccccc1I	> 100 µM (inactive)		> 100 µM (inactive)	> 100 µM (inactive)	> 100 µM (inactive)	> 100 µM (inactive)	> 100 µM (inactive)	> 100 µM (inactive)	> 100 µM (inactive)	> 100 µM (inactive)	> 100 µM	> 100 µM (inactive)	> 100 µM (inactive)	> 100 µM (inactive)	> 100 µM (inactive)	> 100 µM (inactive)	> 100 µM (inactive)	> 100 µM (inactive)	> 100 µM (inactive)
O=C1c2ccccc2C(=O)c2c(NCC3CO3)cccc21 (centres undefined)	7.01 µM (inactive)	40.9 µM (inactive)	> 100 µM (inactive)	> 95.7 µM (inactive)	> 64.7 µM (inactive)	> 100 µM (inactive)	18.6 µM (inactive)	34.4 µM (inactive)	7.66 µM (inactive)	17.5 µM (inactive)	7.23 µM	15.4 µM (inactive)	> 41.7 µM (inactive)	> 53.1 µM (inactive)	7.59 µM (inactive)	1.38 µM (inactive)	57 µM (inactive)	1.43 µM (inactive)	3.77 µM (inactive)
COC(=O)CC1C(COC(C)=O)OC(n2cc(C)c(=O)[nH]c2=O)C1OC(C)=O (centres undefined)	> 100 µM (inactive)	> 100 µM (inactive)	> 100 µM (inactive)	> 100 µM (inactive)	> 100 µM (inactive)	> 100 µM (inactive)	> 100 µM (inactive)	> 100 µM (inactive)	> 100 µM (inactive)	> 100 µM (inactive)	> 100 µM	> 100 µM (inactive)	> 100 µM (inactive)	> 100 µM (inactive)	> 100 µM (inactive)	> 100 µM (inactive)	> 100 µM (inactive)	> 100 µM (inactive)	
CCCCCCCCCCN(CCCCCCCCCC)C(=O)COc1c2cc(C(C)(C)C)cc1Cc1cc(C(C)(C)C)cc(c1OCC(=O)N(CCCCCCCCCC)CCCCCCCCCC)Cc1cc(C(C)(C)C)cc(c1OCC(=O)N(CCCCCCCCCC)CCCCCCCCCC)Cc1cc(C(C)(C)C)cc(c1OCC(=O)N(CCCCCCCCCC)CCCCCCCCCC)C2	2.54 µM (inactive)	18.8 µM (inactive)	8.85 µM (inactive)	14.4 µM (inactive)	12.6 µM (inactive)	18.2 µM (inactive)	11.5 µM (inactive)	15.5 µM (inactive)	9.68 µM (inactive)	12.1 µM (inactive)	8.77 µM	15.7 µM (inactive)	11.3 µM (inactive)	15.8 µM (inactive)	12.9 µM (inactive)	10.2 µM (inactive)	16 µM (inactive)	4.66 µM (inactive)	2.76 µM (inactive)
Nc1ccc2c(c1)C(=O)c1ccc(F)cc1-2	88.5 µM (inactive)	> 100 µM (inactive)	> 100 µM (inactive)	> 100 µM (inactive)	> 100 µM (inactive)	> 100 µM (inactive)	> 100 µM (inactive)	> 100 µM (inactive)	44.4 µM (inactive)	72.4 µM (inactive)	> 100 µM	> 100 µM (inactive)	> 100 µM (inactive)	> 100 µM (inactive)	> 100 µM (inactive)	> 100 µM (inactive)	> 100 µM (inactive)	> 100 µM (inactive)	57.8 µM (inactive)
COc1ccc(C(=O)/C=C/c2ccc3c(c2)OCO3)c(OCc2ccccc2)c1	6.79 µM (inactive)	> 90.8 µM (inactive)	8.28 µM (inactive)	> 54.8 µM (inactive)	8.22 µM (inactive)	> 55.1 µM (inactive)	4.83 µM (inactive)	> 84.9 µM (inactive)	11 µM (inactive)	29.8 µM (inactive)	5.08 µM	19.1 µM (inactive)	> 100 µM (inactive)	> 75.5 µM (inactive)	25.5 µM (inactive)	7.89 µM (inactive)	47.3 µM (inactive)	4.3 µM (inactive)	3.8 µM (inactive)
CCC1CC2CN3CCc4c([nH]c5c(-c6c(OC)ccc7c8c([nH]c67)[C@]6(C(=O)OC)CC7CC(CC)C6N(CC8)C7)c(O)ccc45)[C@](C(=O)OC)(C2)C13 (some centres undefined)	13 µM (inactive)	15.2 µM (inactive)	13.3 µM (inactive)	25.6 µM (inactive)	14.7 µM (inactive)	14.8 µM (inactive)	12.4 µM (inactive)	15.1 µM (inactive)	12.2 µM (inactive)	17.1 µM (inactive)	15.2 µM	14.6 µM (inactive)	15.8 µM (inactive)	11.4 µM (inactive)	11.1 µM (inactive)	14.8 µM (inactive)	17.6 µM (inactive)	15.3 µM (inactive)	2.64 µM (inactive)
CC(=O)Nc1ccc(-c2nc3ccccc3s2)cc1C	78.7 µM (inactive)	72.9 µM (inactive)	42.9 µM (inactive)	32.6 µM (inactive)	78.2 µM (inactive)	38.5 µM (inactive)	51.2 µM (inactive)	2.9 µM (inactive)	44.7 µM (inactive)	25.1 µM (inactive)	> 100 µM		99.1 µM (inactive)	45 µM (inactive)	> 100 µM (inactive)	36.5 µM (inactive)		> 100 µM (inactive)	24.9 µM (inactive)
CC1C=C(NCC2(CO)CCC2)N=C(N)N1 (centres undefined)	> 100 µM (inactive)		> 100 µM (inactive)	> 100 µM (inactive)	> 100 µM (inactive)	> 100 µM (inactive)	> 100 µM (inactive)	91.6 µM (inactive)	> 100 µM (inactive)	> 100 µM (inactive)	> 100 µM	> 100 µM (inactive)	> 100 µM (inactive)	> 100 µM (inactive)	> 100 µM (inactive)	> 100 µM (inactive)	> 100 µM (inactive)	> 100 µM (inactive)	> 100 µM (inactive)
O=c1[nH]cc(F)c(=O)[nH]1 [FLUOROURACIL]		136 µM (inactive)	1.6 µM (inactive)	171 µM (inactive)	1.05 µM (active)	181 µM (inactive)	9.51 µM (inactive)	10.2 µM (inactive)	54.1 µM (inactive)	299 µM (inactive)		27.3 µM (inactive)	50.2 µM (inactive)		10.6 µM (inactive)	6.03 µM (inactive)	2.11 µM (inactive)	35.2 µM (inactive)	14 µM (inactive)
O=S(=O)(O)/C(=N\c1cccc(Cc2ccccc2)c1)Nc1cccc(Cc2ccccc2)c1	14.9 µM (inactive)	19.8 µM (inactive)	18.8 µM (inactive)	21 µM (inactive)		16.1 µM (inactive)	17.3 µM (inactive)	22.4 µM (inactive)	16.4 µM (inactive)	16.7 µM (inactive)	17.6 µM		19.6 µM (inactive)	18.3 µM (inactive)	20.1 µM (inactive)	12.9 µM (inactive)	22.4 µM (inactive)	27.2 µM (inactive)	32.1 µM (inactive)
CC1=NN(c2nc(N)nc(COc3ccc(N)cc3)n2)C(C)(C)C1	> 100 µM (inactive)	> 100 µM (inactive)	> 100 µM (inactive)	> 100 µM (inactive)	> 100 µM (inactive)	> 100 µM (inactive)	> 100 µM (inactive)	> 100 µM (inactive)	> 100 µM (inactive)	> 100 µM (inactive)	> 100 µM		> 100 µM (inactive)	> 100 µM (inactive)	> 100 µM (inactive)	> 100 µM (inactive)		> 100 µM (inactive)	> 100 µM (inactive)
CC(=O)c1c2c(cc3c1CC1(Cc4cc5c(cc4C1)CCC5)C3)CCC2	75 µM (inactive)	> 100 µM (inactive)	> 100 µM (inactive)	> 100 µM (inactive)	> 100 µM (inactive)	> 100 µM (inactive)		> 100 µM (inactive)	> 100 µM (inactive)	> 100 µM (inactive)	> 100 µM	> 100 µM (inactive)	> 100 µM (inactive)		> 100 µM (inactive)	> 100 µM (inactive)	> 100 µM (inactive)	> 100 µM (inactive)	> 100 µM (inactive)
